Data set [1] has as its target T1, CYP3A4 (Homo sapiens, UniProt P08684). The settings on record: cited from earlier work.
The conditions of data set [2]: PBPK input, cited from earlier work.
Data set [3] addresses T1, CYP3A4. The text has this:
(§1) In nearly all cases the fraction of systemic elimination metabolised by a given enzyme (fm) determined in vitro was unavailable in the literature.

A short description of data set [4]: PBPK simulation of drug-drug interactions (Simcyp V19). The arrangement: species or system human. The settings on record: ratio of simulated to clinically observed AUC ratio; DDI of the respective line of Table S3. The text has this: Here, we provide three example applications where the available PBPK models were used to address questions relating to DDI assessment. […] Additional simulation methods are provided in Appendix S1.
All simulations, including the ones performed for the applications, were run using Version 19 of the Simcyp population-based PBPK simulator (Simcyp (Certara), Sheffield, UK) and unless stated otherwise, input parameters for all drugs are as specified (Supplementary Information Table S1). All simulations were run using ten virtual trials that were matched as closely as possible to the clinical study volunteers in terms of the number of subjects, their age, the proportion of males/females and according to the same study design.

In data set [5] the test system is CYP2B6. Kind of data set: Metabolism by CYP2B6 (CLint, Vmax, Km, fm). The data set is classed as in vitro ADME, human. The settings on record: fraction metabolised used in the PBPK model (artemether: without induction).
Text: as §1

A further data set deals with Caco-2 cells. Conditions: cited from earlier work.
For data set [6] the following is noted: cited from earlier work.
The test system of data set [7] is CYP2B6. Details: method as in Honda et al., 2011 12. The settings on record: ref Honda et al., 2011 12; cited from earlier work.
The conditions of data set [8]: PBPK input; ref Charman et al., 2020 1; cited from earlier work.
The conditions of data set [9]: cited from earlier work; for Cmax: read-out: Cmax Obs.
The conditions of data set [10]: 2020 1, cited from earlier work.
A short description of data set [11]: In vitro flags for victim and perpetrator properties conferring DDI liability. The data set is classed as in vitro ADME, human. The settings on record: in vitro flag, mainly based on in vitro determinations.
The conditions of data set [12]: ref Charman et al., 2020 1; cited from earlier work.
For data set [13] the following is noted: cited from earlier work; for CL IV: clinically observed, ref atovaquone Lavelle et al., 1994 17, chloroquine Walker et al., 1987 29, Gustafsson et al., 1983 30, doxycycline Raghuram et al., 1982 48, Nguyen et al., 1989 49, primaquine Mihaly et al., 1985 26, quinine White et al., 1983 77, Paintaud et al., 1993 78.
In a further data set the test system is CYP2C9. Conditions: ref mefloquine Karbwang et al., 1988 58; tafenoquine Charman et al., 2020 1; cited from earlier work.
The nature of data set [14]: Fraction unbound in human liver microsomes (fumic). The settings on record: extrapolated from value measured at 0.4 mg/mL to 0.1 mg/mL, method of Austin et al., 2002.
Another data set deals with CYP1A2. Conditions: read-out: CYP1A2 IC50; ref Charman et al., 2020 1; cited from earlier work.
Setting [15] is: calibrated against propranolol, plasma as medium for atovaquone and piperaquine, ref Charman et al., 2020 1.
Setting [16] is: 80 mg BID (Day 22-24) + rifampicin 600 mg QD (Days 1-24), HIV-infected, ref Lamorde et al., 2013 3.
[17] abbreviates: 80 mg BID (Days 13-15) + efavirenz 600 mg QD (Days 1-16), ref Huang et al., 2012 4.
The mark [18] stands for this setting: 80 mg SD (Day 1) + ketoconazole 400 mg SD (Day 1), 200 mg QD (Days 2-5), ref Lefevre et al., 2002 2.

Results on 4 molecules are retold here after article PMC10508484, “Development and application of a PBPK modeling strategy to support antimalarial drug development” (CPT: Pharmacometrics & Systems Pharmacology, 2023).

Where “and” joins values, the source holds several entries; their conditions need not be identical. Equal values may be shown once. Read-outs that look alike come from different tables or passages of the source.

T1 sequence (P08684 whole entry): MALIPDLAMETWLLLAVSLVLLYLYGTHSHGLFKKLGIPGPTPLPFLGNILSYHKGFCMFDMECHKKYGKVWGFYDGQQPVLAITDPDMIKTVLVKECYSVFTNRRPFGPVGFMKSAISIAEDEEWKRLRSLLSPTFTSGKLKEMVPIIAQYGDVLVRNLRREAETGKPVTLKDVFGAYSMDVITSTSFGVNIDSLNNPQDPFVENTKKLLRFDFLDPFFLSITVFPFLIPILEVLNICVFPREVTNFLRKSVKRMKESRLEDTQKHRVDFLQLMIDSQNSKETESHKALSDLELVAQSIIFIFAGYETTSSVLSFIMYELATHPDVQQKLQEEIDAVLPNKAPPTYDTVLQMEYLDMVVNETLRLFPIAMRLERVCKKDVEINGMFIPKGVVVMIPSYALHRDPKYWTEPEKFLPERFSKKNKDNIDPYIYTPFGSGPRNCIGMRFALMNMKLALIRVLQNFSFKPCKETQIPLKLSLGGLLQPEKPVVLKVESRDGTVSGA

With `CO[C@H]1O[C@@H]2O[C@@]3(C)CC[C@H]4[C@H](C)CC[C@@H]([C@H]1C)[C@@]24OO3` [Artemether, artemether], the “CYP3A4 Vmax reported” value on CYP3A4 [1] is on record as 12.3 pmol/min/pmol. Further, the Km is 8.24 µM at CYP3A4 [1] and 1.95 µM in the data set with CYP2B6 [7]. In addition, the fu in data set [2] (ref Charman et al., 2020 1) is recorded as 0.038. For the same molecule, the fmCYP3A4 at CYP3A4 [3] came to 53%. The “AUC ratios Sim/Obs” value in [4] was 1.00 and 1.08 and 1.15. The molecule also showed a fmCYP2B6 in the data set on CYP2B6 [5] of 47%. For the same molecule, the “Caco-2 (Papp A-B)” value with Caco-2 cells (setting [15]) was 42.7 10-6 cm/s. The “AUC ratio Obs” value in data set [6] (setting [16]) is on record as 0.11; in [6] (setting [17]), 0.49; in data set [6] (setting [18]), 2.51. In addition, the “Cmax ratio Obs” value in [6] (setting [16]) is 0.18; in data set [6] (setting [17]), 0.79; in data set [6] (setting [18]), 2.24. The “CYP2B6 Vmax reported” value in the data set with CYP2B6 [7] is on record as 17.9 pmol/min/pmol. In [8], the “Log P” value was 3.7. Besides, the “AUC Obs” value in data set [9] (80 mg BID (Day 3 PM), 60-72 h, ref Huang et al., 2012 8) is 59.5 ng·h/mL; in data set [9] (80 mg BID (Day 3 PM), 62-72 h, ref Lefevre et al., 2002 7) it was 61.4 ng·h/mL; in data set [9] (80 mg SD, Indian, 0-inf, ref Lefevre et al., 2013 6), 408 ng·h/mL; in data set [9] (80 mg SD, 0-inf, ref Lefevre et al., 2002 5) it was 320 ng·h/mL. Also, the “Cmax Obs” value in [9] (80 mg BID (Day 3 PM), ref Huang et al., 2012 8) was 21.2 ng/mL; in data set [9] (80 mg BID (Day 3 PM), ref Lefevre et al., 2002 7), 30.8 ng/mL; in data set [9] (80 mg SD, Indian, ref Lefevre et al., 2013 6), 113 ng/mL; in data set [9] (80 mg SD, ref Lefevre et al., 2002 5), 104 ng/mL. Further, in data set [10] (PBPK input, ref artemether Colussi et al., 1999 11, atovaquone Rolan et al., 1997 14, Beerahee, 1999 16, Charman et al., azithromycin Pene Dumitrescu et al., 2013 21, DEAQ Winstanley et al., 1987 9, proguanil weighted mean Helsby et al., 1993 61, Wattanagoon et al., 1987 63), the “B:P” value is on record as 0.8. The “Risk as a perpetrator” value in data set [11] was “CYP2B6 inducer”. Also, in [11], the “Risk as a victim” value is “Substrate of CYP2B6 and CYP3A4”.
In the case of `O=C1C(O)=C([C@H]2CC[C@H](c3ccc(Cl)cc3)CC2)C(=O)c2ccccc21` [Atovaquone, atovaquone], in data set [12], the “pKa(s)” value was 4.28. For the same molecule, the fu in data set [2] (ref atovaquone Mepron Prescribing Information, 2008, Nixon et al., 2013 13, Rolan et al., 1997 14, azithromycin Foulds et al., 1990 20, chloroquine Ofori-Adjei et al., 1986 27, Walker et al., 1983 28, DHA Batty et al., 2004 41 (healthy volunteers), lumefantrine CDER submission 22-269, proguanil Wattanagoon et al., 1987 63, tafenoquine Dow et al., 2020 84) is listed as 0.001. Moreover, the “CL IV” value in data set [13] is 0.62 L/h. Also, the CL renal in data set [13] (in vivo) is given as 0 L/h. In addition, the “fe (fraction excreted unchanged in urine)” value in [13] (in vivo) is reported as less than 0.6%. Also, the “Caco-2 (Papp A-B)” value with Caco-2 cells (setting [15]) is recorded as 300 10-6 cm/s. Further, the “AUC Obs” value is 254 µM·h in data set [9] (250 mg QD, 0-24 h, ref Thapar et al., 2002 10); 295 µM·h in data set [9] (250 mg SD, 0-inf, ref Thapar et al., 2002 10); 288000 ng·h/mL in data set [9] (500 mg SD, AUC window Unknown, ref Rolan et al., 1994 9). In addition, the “Cmax Obs” value in data set [9] (500 mg SD, ref Rolan et al., 1994 9) is 4400 ng/mL. The Cmax in data set [9] (250 mg QD, ref Thapar et al., 2002 10) is 13.8 µM; in data set [9] (250 mg SD, ref Thapar et al., 2002 10) it was 3.7 µM. In addition, the “Risk as a perpetrator” value in [11] is “BCRP inhibitor”. Moreover, in data set [11], the “Risk as a victim” value is “Cleared by biliary excretion”.
On CYP3A4 [3], `OC(c1cc(C(F)(F)F)nc2c(C(F)(F)F)cccc12)C1CCCCN1` (stereo not drawn) [Mefloquine, mefloquine] returned a fmCYP3A4 of 95%. Further, at CYP3A4 [3] (microsomes), the “CLint CYP3A4” value was determined as 0.168 µL/min/pmol. Further, the “CL PO” value in data set [13] (in vivo, po) was 2.09 L/h. Moreover, the CL renal in data set [13] (in vivo) is 0.07 L/h. The “Caco-2 (Papp A-B)” value with Caco-2 cells (Caco-2) is on record as 66 10-6 cm/s. Also, the “AUC Obs” value in data set [9] (in vivo, 250 mg) is 116000 ng·h/mL; in data set [9] (in vivo, 750 mg), 393500 ng·h/mL; in data set [9] (in vivo, 1000 mg), 516000 ng·h/mL. Moreover, the “Cmax Obs” value in [9] (in vivo, 250 mg) is 310 ng/mL; in data set [9] (in vivo, 1000 mg) it was 960 ng/mL; in data set [9] (in vivo, 1500 mg) it was 1440 ng/mL. Besides, in the data set on CYP2C9, the Ki was 260 µM. Also, in [11], the “Risk as a victim” value is on record as “Substrate of CYP3A4”.
For `COc1cc(NC(C)CCCN)c2ncccc2c1` (stereo not drawn) [Primaquine, primaquine], the fu in data set [2] (ref Charman et al., 2020 1) is recorded as 0.26. For the same molecule, in data set [13], the “CL IV” value is recorded as 24.2 L/h. Also, the “fe (fraction excreted unchanged in urine)” value in data set [13] (ref atovaquone Rolan et al., 1997 14, mefloquine Schwartz et al., 1982 57, primaquine White, 1985 62, proguanil (extensive metabolisers) Jeppesen et al., 1997 34, pyronaridine Wattanavijitkul, 2010 74, sulfadoxine assumed with Edstein, 1987 83) is reported as less than 0.01%. Moreover, the fumic in data set [14] was 0.84. In addition, the “Caco-2 (Papp A-B)” value in the data set on Caco-2 cells (setting [15]) was 29 10-6 cm/s. Also, the IC50 in the data set on CYP1A2 was less than 0.25 µM. Also, the “AUC Obs” value is 443 ng·h/mL in data set [9] (15 mg QD (Day 14), 0-inf, ref Ward et al., 1985 14); 500 ng·h/mL in data set [9] (15 mg SD, 0-inf, ref Mihaly et al., 1985 12); 468 ng·h/mL in data set [9] (15 mg SD, 0-inf, ref Ward et al., 1985 14); 1130 ng·h/mL in data set [9] (30 mg SD, 0-inf, ref Hanboonkunupakarn et al., 2014 13); 1180 ng·h/mL in [9] (30 mg SD, 0-inf, ref Jittamala et al., 2015 15); 1700 ng·h/mL in data set [9] (45 mg SD, 0-inf, ref Mihaly et al., 1985 12). The “Cmax Obs” value in data set [9] (15 mg QD (Day 14), ref Ward et al., 1985 14) is on record as 66 ng/mL; in data set [9] (15 mg SD, ref Mihaly et al., 1985 12), 53 ng/mL; in data set [9] (15 mg SD, ref Ward et al., 1985 14) it was 65 ng/mL; in data set [9] (30 mg SD, ref Hanboonkunupakarn et al., 2014 13) it was 128 ng/mL; in [9] (30 mg SD, ref Jittamala et al., 2015 15) it was 139 ng/mL; in [9] (45 mg SD, ref Mihaly et al., 1985 12) it was 176 ng/mL. In addition, in data set [10] (ref Charman et al.), the “B:P” value is recorded as 0.82. In addition, in [11], the “Risk as a perpetrator” value is listed as “CYP1A2 inhibitor”. The “Risk as a victim” value in data set [11] is “Substrate of MAO and CYP2D6”.

The Km is the substrate concentration at which the rate is half of its maximum. As a reminder, the Log P is a log measure of how a compound divides between an organic and an aqueous phase. As a reminder, the Cmax is the peak of the concentration-time curve. One may read the Ki as a measure of affinity in units of concentration, obtained from inhibition or displacement. For orientation: IC50 means the midpoint of a concentration-inhibition curve.
